Results published in patent US8993717B2, “Gadd45beta targeting agents” (Imperial Innovations Limited, priority 2009, dated 2015).
Square brackets hold non-standard residues; d marks the D form. Peptide text beside a SMILES is read from it. * marks the point of attachment. Cbz = O=C(OCc1ccccc1)*

How the values were obtained:
Gadd45β-inhibited MKK7 = target: T1, Gadd45β-inhibited MKK7 (Homo sapiens, UniProt O14733); assay: MKK7 kinase assay in the presence of recombinant hGadd45β; format: biochemical; details: 1 nM or 5 nM peptide, 5 μM GST-hGadd45β
T1 construct: expressed in transfected cells; host or cells: HEK-293 (FLAG-MKK7); bacteria (GST-hGadd45β)
T1 sequence (O14733 1-419): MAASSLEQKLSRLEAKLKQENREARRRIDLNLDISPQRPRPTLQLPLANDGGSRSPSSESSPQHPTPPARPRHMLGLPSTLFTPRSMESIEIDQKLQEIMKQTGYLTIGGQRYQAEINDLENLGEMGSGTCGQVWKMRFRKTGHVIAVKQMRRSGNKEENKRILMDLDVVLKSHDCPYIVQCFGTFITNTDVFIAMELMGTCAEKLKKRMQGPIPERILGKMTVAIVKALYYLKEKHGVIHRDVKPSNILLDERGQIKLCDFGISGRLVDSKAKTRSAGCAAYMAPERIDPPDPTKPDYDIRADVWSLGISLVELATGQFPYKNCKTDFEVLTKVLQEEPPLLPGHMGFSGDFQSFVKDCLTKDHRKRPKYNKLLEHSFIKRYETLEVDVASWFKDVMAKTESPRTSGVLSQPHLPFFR
Protocol: In FIG. 6, transient transfection of pcDNA-FLAG-MKK7 in HEK-293 cells was performed using the method of Ca3(PO4)2 precipitation, essentially as described in Papa, S et al., (2004) Nat. Cell Biol. 6, 146-153 and references therein. 36 hrs after transfection, the cells were treated with 100 ng/ml phorbol 12-myristate 13-acetate (PMA) and 1 μM ionomycin for 30 min at 37° C. Cell extracts were prepared as described in example 4 and used for immunoprecipitation with anti-FLAG antibodies (binding to FLAG-MKK7) as described in Papa, S et al., (2004) Nat. Cell Biol. 6, 146-153 and references therein. Briefly, 50 μg of cell lysate from PMA-ionomycin (P/D-treated or untreated, HEK-293 cells transiently expressing FLAG-MKK7 was incubated with 10 μl of anti-FLAG M2 Affinity Gel (SIGMA) for 4 hrs at 4° C. during rotation. The immunoprecipitates were then washed 3 times in lysis buffer and twice more in kinase buffer (10 mM HEPES, 5 mM MgCl2, 1 mM MnCl2,12.5 mM β-glycerophosphate, 2 mM DTT, 4 mM NaF and 0.1 mM Na3VO4). MKK7 catalytic activity was finally measured in kinase assays by incubating FLAG-MKK7 immunoprecipitates at 30° C. for 20 min with 20 μl of kinase buffer containing 2 μM of recombinant GST-JNK1 and 5 μCi of [γ-^32P]ATP) (kinase reaction), as described in Papa, S et a., (2004) Nat. Cell Biol. 6, 146-153 and references therein.
In some reactions, to test the ability of D-tetrapeptide antagonists to disrupt the Gadd45β-MKK7 interaction and so release the catalytic activity of MKK7 from Gadd45β-afforded inhibition, FLAG-MKK7 immunoprecipitates were 1) first pre-incubated for 10 min at 30° C. with either 1 nM or 5 nM of DTP1, DTP2 or negative control (NC) D-tetrapeptides, NC1, NC2, NC3 and NC4, and 2) then incubated for another 10 min at 30° C. with or without 5 μM of a GST-fusion protein of recombinant human (h)Gadd45β (GST-hGadd45β; purified from bacterial lysates as described in Papa, S., (2007) J. Biol. Chem. 282, 19029-19041), before using them for the kinase reaction described above, as indicated in FIG. 6.
In all cases, kinase reactions were terminated by the addition of Laemmli sample buffer. […] For a further discussion of MKK7 kinase assay conditions, the reader is directed to Papa, S et al., (2007) J. Biol. Chem. 282, 19029-19041 and Papa, S et al., (2004) Nat. Cell Biol. 6, 146-153 and the references therein.

Gadd45β/MKK7 interaction [1] = target: T2, Gadd45β/MKK7 interaction (Homo sapiens, UniProt O14733); assay: ELISA competition assay after 48-hr pre-incubation with human serum at 37° C.; format: binding; details: for stability after pre-incubation with human serum: result in words
T2 construct: The GST-fused full-length kinase was coated for 16 h at 4° C., at a concentration of 42 nM; made in house
T2 sequence (O14733 1-419): T1 sequence (O14733 1-419)
Protocol: In FIG. 4, Gadd45β/MKK7 binding, competition ELISA assays were carried out to determine the stability of Z-conjugated D-tetrapeptides in human serum. […] ELISA were performed as described in FIG. 3 C. Briefly, 100 μl of 42 nM of recombinant GST-MKK7 in ELISA buffer (25 mM Tris pH 7.5, 150 mM NaCl, 1 mM DTT, 1 mM EDTA) were coated onto wells of 96-well plates by overnight incubation at 4° C. After blocking with 2% of NFDM for 1 hr at 37° C., plates were washed with TPBS, and then 21 nM of recombinant, biotinylated human (h)Gadd45β were added to the wells together with increasing concentrations of tetrapeptides which had either been subjected or had not been subjected to pre-incubation with human serum, as indicated. For a further discussion of the conditions used for the competition ELISA assay, the reader is directed to Tornatore et al 2008 JMB, 378: 97-111 and the references therein.

[2] = system: U266, KMS-11, NCI-H929, BJAB and U937 tumour cell lines; assay: [3H]thymidine incorporation assay in tumour cell lines at 10 μM; format: cell-based, human; details: up to 144 hrs, result in words
Protocol: All experiments were performed in triplicate.

Gadd45β/MKK7 interaction [3] = target: T2, Gadd45β/MKK7 interaction; assay: ELISA competition assay of biotin-hGadd45β binding to coated GST-MKK7; details: Table III, modified peptides
How it was run: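 GST-MKK7 (42 nM) coated in Tris pH 7.5 buffer, 16 h, 4 °C; biotin-hGadd45β (21 nM) added with competitor peptides (0.01–100 nM), 1 h, 37 °C. Streptavidin-HRP/o-phenylenediamine read at 490 nm; binding expressed as % of signal without competitor.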

Compound	restoration of MKK7 catalytic activity (Gadd45β-inhibited MKK7)	IC50 (Gadd45β/MKK7 interaction [1]) [µM]	stability after pre-incubation with human serum (Gadd45β/MKK7 interaction [1])	tumoricidal/cytotoxic activity in tumour cell lines [2]	% Inhibition of Gadd45β-MKK7 binding (Gadd45β/MKK7 interaction [3]) [%]
NC(=O)[C@H](Cc1ccccc1)NC(=O)[C@H](Cc1c[nH]cn1)NC(=O)[C@H](CC(=O)O)NC(=O)[C@H](Cc1ccc(O)cc1)NC(=O)OCc1ccccc1 [Z-YDHF-NH2] (Cbz-YDHF-NH2)		> 10	significant loss of activity	not	
N=C(N)NCCC[C@H](NC(=O)[C@H](CCC(=O)O)NC(=O)[C@H](Cc1ccc(O)cc1)NC(=O)OCc1ccccc1)C(=O)N[C@@H](Cc1ccccc1)C(N)=O [Z-YERF-NH2] (Cbz-YERF-NH2)		> 10	significant loss of activity	low activity	78

The next lines start with results.

restoration of MKK7 catalytic activity (Gadd45β-inhibited MKK7)	Compound	IC50 (Gadd45β/MKK7 interaction [1]) [µM]	stability after pre-incubation with human serum (Gadd45β/MKK7 interaction [1])	tumoricidal/cytotoxic activity in tumour cell lines [2]	% Inhibition of Gadd45β-MKK7 binding (Gadd45β/MKK7 interaction [3]) [%]
did not	CC(=O)N[C@H](Cc1ccc(O)cc1)C(=O)N[C@H](CC(=O)O)C(=O)N[C@H](Cc1c[nH]cn1)C(=O)N[C@H](CCC(N)=O)C(N)=O [NC1, Acetyl-(D-Tyr)-(D-Asp)-(D-His)-(D-Gln)-NH2] (Ac-[dY][dD][dH][dQ]-NH2)				
did not	CC(=O)N[C@@H](Cc1ccc(O)cc1)C(=O)N[C@@H](CC(=O)O)C(=O)N[C@@H](Cc1c[nH]cn1)C(=O)N[C@@H](C)C(N)=O [NC2, Acetyl-(L-Tyr)-(L-Asp)-(L-His)-(L-Ala)-NH2] (Ac-YDHA-NH2)				
did not	CC(=O)N[C@@H](Cc1ccc(O)cc1)C(=O)N[C@@H](CCC(=O)O)C(=O)N[C@@H](CCCCN)C(=O)N[C@@H](Cc1c[nH]c2ccccc12)C(N)=O [NC3, Acetyl-(L-Tyr)-(L-Glu)-(L-Lys)-(L-Trp)-NH2] (Ac-YEKW-NH2)				
did not	CC(=O)N[C@@H](Cc1ccc(O)cc1)C(=O)N[C@@H](CC(=O)O)C(=O)N[C@@H](CCCCN)C(=O)N[C@@H](Cc1c[nH]c2ccccc12)C(N)=O [NC4, Acetyl-(L-Tyr)-(L-Asp)-(L-Lys)-(L-Trp)-NH2] (Ac-YDKW-NH2)				
